Measurements from US8440590B2, “Method for controlling soybean rust” (priority 2006, dated 2013).

Experiments:
Type in all cases: in vivo
[1] = system: soybean cv. Williams (not GM); experiment: Crop tolerance test (germination after seed treatment), cv. Williams
Protocol: (§1) Fifty soybean seeds of cv. S-40-R9 (RR-soybean) or cv. Williams (not GM) are sown 2 cm deep into trays filled with quarz sand. Seeds are treated prior to sowing with the formulated ais. The plants are grown at 20-23° C. in a greenhouse. If necessary, artificial lighting is supplied to give a 14 hr day.
(§2) Plant emergence 6 DAS and final stand 11 DAS is counted.

[2] = system: soybean cv. S-40-R9 (RR-soybean); experiment: Crop tolerance test (germination after seed treatment), cv. S-40-R9
Protocol: as §1, §2

Phakopsora pachyrhizi [3] = experiment: Test for rust activity, leaf discs from seed-treated plants, cv. S-40-R9; settings: 11 DAI
Protocol: as §1
(§3) For the soybean rust assay, plants are transplanted 13 DAS into 8 cm pots filled with soil. 13 days after transplanting leaf discs are cut from the first and second true leaves and transferred to multiwell plates filled with water agar. 1 day later the leaf discs are inoculated with Phakopsora pachyrhizi. Assessment of the disease incidence is done 11 DAI (days after inoculation).

Phakopsora pachyrhizi [4] = experiment: Test for rust activity, leaf discs from seed-treated plants, cv. Williams; settings: 11 DAI
Protocol: as §1, §3

[5] = GA seed treatment 1 g ai/100 kg
[6] = GA seed treatment 2 g ai/100 kg
[7] = GA seed treatment 1 g ai/100 kg, cv. Williams, fifty seeds sown
[8] = GA seed treatment 2 g ai/100 kg, cv. Williams, fifty seeds sown
[9] = GA seed treatment 1 g ai/100 kg, cv. S-40-R9, fifty seeds sown
[10] = GA seed treatment 2 g ai/100 kg, cv. S-40-R9, fifty seeds sown

## CC(C1CC1)C(O)(Cn1cncn1)c1ccc(Cl)cc1 (stereo not shown) [Cyproconazole (CCZ), cyproconazole]
[1]; in vivo
  Germination % Emergence 6 DAS: 0%
  Germination Count 6 DAS: 0
[2]; in vivo
  Effect on plant numbers and size (phytotoxicity): severe reductions in plant numbers and size
  Germination % Emergence 6 DAS: 0%
  Germination Count 6 DAS: 0

## C=C1C[C@]23C[C@@]1(O)CC[C@H]2[C@@]12C=C[C@H](O)[C@@](C)(C(=O)O1)[C@H]2[C@@H]3C(=O)O [Gibberelic acid (GA), gibberellic acid (gibberellin A3)]
Phakopsora pachyrhizi [3]; [5]
  1st Leaf % Activity: 0.0%
  1st Leaf % Disease: 87.8%
  2nd Leaf % Activity: 0.0%
  2nd Leaf % Disease: 71.1%
Phakopsora pachyrhizi [3]; [6]
  1st Leaf % Activity: 0.0%
  1st Leaf % Disease: 82.8%
  2nd Leaf % Activity: 0.0%
  2nd Leaf % Disease: 68.9%
Phakopsora pachyrhizi [4]; [5]
  1st Leaf % Activity: 0.0%
  1st Leaf % Disease: 88.9%
  2nd Leaf % Activity: 32.4%
  2nd Leaf % Disease: 48.3%
Phakopsora pachyrhizi [4]; [6]
  1st Leaf % Activity: 0.0%
  1st Leaf % Disease: 87.2%
  2nd Leaf % Activity: 28.4%
  2nd Leaf % Disease: 51.1%
[1]; [7]
  Germination % Emergence 6 DAS: 100%
  Germination % Final Stand 11 DAS: 100%
  Germination Count 6 DAS: 50
  Germination Count 11 DAS: 50
[1]; [8]
  Germination % Emergence 6 DAS: 98%
  Germination % Final Stand 11 DAS: 98%
  Germination Count 6 DAS: 49
  Germination Count 11 DAS: 49
[2]; [9]
  Germination % Emergence 6 DAS: 100%
  Germination % Final Stand 11 DAS: 100%
  Germination Count 6 DAS: 50
  Germination Count 11 DAS: 50
[2]; [10]
  Germination % Emergence 6 DAS: 96%
  Germination % Final Stand 11 DAS: 96%
  Germination Count 6 DAS: 48
  Germination Count 11 DAS: 48
